Here are results for 55 compounds from US7279444B2, “Substituted benzoylpyrazoles” (Bayer CropScience GmbH, priority 1999, dated 2007).

The melting point is the temperature of the solid-liquid transition.

Read-outs that look alike come from different tables or passages of the source. Marks after values point to notes of the source that are not given here.

The nature of data set [1]: log P by HPLC on reversed-phase column (C 18), acidic range. Type of data set: physicochemical. As to the method:
Temperature: 43° C. […] The log P values given in Table 3 were determined in accordance with EEC Directive 79/831 Annex V.A8 by HPLC (High Performance Liquid Chromatography) on a reversed-phase column (C 18). Temperature: 43° C. […] The log P values given in Tables 4 were determined in accordance with EEC Directive 79/831 Annex V.A8 by HPLC (High Performance Liquid Chromatography) on a reversed-phase column (C 18). Temperature: 43° C.

In data set [2] the test system is crop plants such as, for example, corn. As to the kind of experiment: Pre-emergence test, tolerance by crop plants. Type of data set: in vivo. Conditions: rated after three weeks. As to the method: (§1) Pre-Emergence Test Solvent: 5 parts by weight of acetone Emulsifier: 1 part by weight of alkylaryl polyglycol ether To produce a suitable preparation of active compound, 1 part by weight of active compound is mixed with the stated amount of solvent, the stated amount of emulsifier is added and the concentrate is diluted with water to the desired concentration. Seeds of the test plants are sown in normal soil. After about 24 hours, the soil is sprayed with the preparation of active compound such that the particular amount of active compound is applied per unit area. The concentration of the spray liquor is chosen such that the particular amount of active compound desired is applied in 1000 liters of water per hectare. After three weeks, the degree of damage to plants is rated in % damage in comparison to the development of the untreated control. The figures denote: • 0%=no effect (like untreated control) • 100%=total destruction

In data set [3] the test system is weeds. As to the kind of experiment: Post-emergence test, activity against weeds. Conditions: test plants of 5-15 cm sprayed, rated after three weeks. Type of data set: in vivo. How it is done: Solvent: 5 parts by weight of acetone
Emulsifier: 1 part by weight of alkylaryl polyglycol ether
To produce a suitable preparation of active compound, 1 part by weight of active compound is mixed with the stated amount of solvent, the stated amount of emulsifier is added and the concentrate is diluted with water to the desired concentration.
Test plants of a height of 5-15 cm are sprayed with the preparation of active compound such that the particular amounts of active compound are applied per unit area. The concentration of the spray liquor is chosen such that the particular amounts of active compound desired are applied in 10001 of water/ha.
After three weeks, the degree of damage to the plants is rated in % damage in comparison to the development of the untreated control.
• 0%=no effect (like untreated control) • 100%=total destruction

Data set [4] relates to weeds. As to the kind of experiment: Pre-emergence test, activity against weeds. The following applies: soil sprayed about 24 hours after sowing, rated after three weeks. Type of data set: in vivo. How it is done:
as §1

Where [5] appears, read: marked a): acidic range, 0.1% aqueous phosphoric acid/acetonitrile gradient, HPLC reversed-phase C 18, 43° C., Table 1.

In the case of `CCOc1nn(Cc2cc(C(F)(F)F)ccc2C(=O)c2cnn(CC)c2O)c(=O)n1C` [Example 2], the logP result in data set [1] (setting [5]) is recorded as “logP = 2.34^a)”. Moreover, the “tolerance by crop plants” value in data set [2] is “tolerated well”. For the same compound, the “activity against weeds (degree of damage)” value in the data set on weeds [3] and with weeds [4] was “strong activity” throughout. Turning to `CCn1ncc(C(=O)c2ccc(C(F)(F)F)cc2Cn2nc(SC)n(C)c2=O)c1O` [Example 3], in data set [1] (setting [5]), the logP result is “logP = 2.22^a)”. Further, the “tolerance by crop plants” value in data set [2] is listed as “tolerated well”. In addition, the “activity against weeds (degree of damage)” value in the data set on weeds [3] and with weeds [4] was “strong activity” in each case.

In turn, `Cn1c(C(F)(F)F)nn(Cc2c(Cl)ccc(C(=O)O)c2Cl)c1=O` [III-3, 4-methyl-5-trifluoromethyl-2-(2,6-dichloro-3-carboxy-benzyl)-2,4-dihydro-3H-1,2,4-triazol-3-one] came in with a melting point of 207 °C. With `COC(=O)c1ccc(Cl)c(Cn2nc(C(F)(F)F)n(C)c2=O)c1Cl` [IV-2, 4-methyl-5-trifluoromethyl-2-(2,6-dichloro-3-methoxycarbonyl-benzyl)-2,4-dihydro-3H-1,2,4-triazol-3-one], the melting point was 109 °C. As to `CCOC(=O)c1ccc(Br)cc1Cn1nc(CC)n(OCC)c1=O` [IV-34], in data set [1], the logP result is “logP = 3.24^a)”. Still for that read-out and setting: the entry for `CCOC(=O)c1ccc(Br)cc1Cn1nc(C(F)(F)F)n(C)c1=O` [IV-35] is “logP = 3.40^a)”; for `CCOC(=O)c1ccc(F)c(Cn2nc(Br)n(C)c2=O)c1` [IV-36] it is “logP = 2.41^a)”; for `CCOC(=O)c1ccc(F)cc1Cn1nc(SC)n(C)c1=O` [IV-37] it is “logP = 2.45^a)”.

For the compound `CCOC(=O)c1ccc(Br)c(Cn2nc(C)n(C)c2=O)c1` [IV-38], in data set [1], the logP entry is listed as “logP = 2.06^a)”. In the case of `CCOC(=O)c1ccc(Br)c(Cn2nc(Br)n(C)c2=O)c1` [IV-39], the logP entry in data set [1] is “logP = 2.64^a)”.

For the compound `CCOC(=O)c1ccc(Br)c(Cn2nc(C(F)(F)F)n(C)c2=O)c1` [IV-40], the logP result in data set [1] is reported as “logP = 3.23^a)”. With `CCOC(=O)c1ccc(Br)c(Cn2nc(C3CC3)n(C3CC3)c2=O)c1` [IV-41], the logP entry in data set [1] is recorded as “logP = 3.02^a)”. On the same count and under the same terms, the entry for `CCOC(=O)c1ccc(Cl)cc1Cn1nc(OCC)n(C2CC2)c1=O` [IV-42] is “logP = 3.23^a)”. On the same count and under the same terms, as for `CCOC(=O)c1ccc(Cl)cc1Cn1nc(C(F)(F)F)n(C)c1=O` [IV-43], the entry is “logP = 3.31^a)”; as for `CCOC(=O)c1ccc(Cl)cc1Cn1nc(CC)n(OCC)c1=O` [IV-44], “logP = 3.14^a)”; as for `CCOC(=O)c1ccc([N+](=O)[O-])cc1Cn1nc(OCC)n(C2CC2)c1=O` [IV-45], “logP = 2.42^a)”.

For `CCOC(=O)c1ccc([N+](=O)[O-])cc1Cn1nc(SC)n(C)c1=O` [IV-46], the logP entry in data set [1] is reported as “logP = 2.82^a)”. In the case of `CCOC(=O)c1ccc(C(F)(F)F)cc1Cn1nc(OCC)n(C2CC2)c1=O` [IV-47], the logP result in data set [1] is “logP = 3.48^a)”. On the same count and under the same terms, as for `CCOC(=O)c1ccc(C(F)(F)F)cc1Cn1nc(CC)n(OCC)c1=O` [IV-48], the entry is “logP = 3.38^a)”; as for `CCOC(=O)c1ccc(C(F)(F)F)cc1Cn1nc(SC)n(C)c1=O` [IV-49], “logP = 3.02^a)”; as for `CCCOC(=O)c1ccc(C(F)(F)F)cc1Cn1nc(OCC)n(C2CC2)c1=O` [IV-50], “logP = 3.91^a)”. Still for that read-out and setting: the entry for `CCOC(=O)c1ccc(Br)cc1Cn1nc(OCC)n(C)c1=O` [IV-58] is “logP = 2.95^a)”. Consider `CCOC(=O)c1ccc(Br)cc1CN1C(=O)CCC1=O` [IV-60], for which the logP result in data set [1] was “logP = 2.44^a)”.

Consider `CCOC(=O)c1ccc(Br)cc1Cn1nc(OC(C)C)n(C)c1=O` [IV-65], for which, in data set [1], the logP entry is “logP = 3.34^a)”. The same measure, in the same setting: as for `CCCOc1nn(Cc2cc(Br)ccc2C(=O)OCC)c(=O)n1C` [IV-66], the entry is “logP = 3.38^a)”; as for `CCOC(=O)c1ccc(Br)cc1Cn1nc(OCC(F)(F)F)n(C)c1=O` [IV-67], “logP = 3.31^a)”; as for `CCOC(=O)c1ccc(Br)cc1Cn1nc2n(c1=O)CCC2` [IV-68], “logP = 2.16^a)”. On the same count and under the same terms, the entry for `CCOC(=O)c1ccc(Br)cc1Cn1nc2n(c1=O)CCCC2` [IV-69] is “logP = 2.41^a)”; for `CCOC(=O)c1ccc(C(F)(F)F)cc1Cn1nc(OC(C)C)n(C)c1=O` [IV-70] it is “logP = 3.51^a)”; for `CCCOc1nn(Cc2cc(C(F)(F)F)ccc2C(=O)OCC)c(=O)n1C` [IV-71] it is “logP = 3.54^a)”. The same measure, in the same setting: as for `CCOC(=O)c1ccc(Br)cc1CN1CCOC1=O` [IV-72], the entry is “logP = 2.36^a)”; as for `CCOC(=O)c1ccc(Br)cc1Cn1nc(C)oc1=O` [IV-73], “logP = 2.88^a)”; as for `CCOC(=O)c1ccc(C(F)(F)F)cc1Cn1cnn(C)c1=O` [IV-74], “logP = 2.68^a)”. For `CCOC(=O)c1ccc(Br)cc1Cn1nc(Br)n(C)c1=O` [IV-75], the logP result in data set [1] is given as “logP = 2.80^a)”. Same read-out and setting: as for `CCOC(=O)c1ccc(C(F)(F)F)cc1Cn1nc(COC)n(C2CC2)c1=O` [IV-77], the entry is “logP = 2.88^a)”; as for `CCOC(=O)c1ccc(C(F)(F)F)cc1Cn1nc(COC)n(C)c1=O` [IV-78], “logP = 2.60^a)”; as for `CCOC(=O)c1ccc(C(F)(F)F)cc1Cn1nc(Br)n(C2CC2)c1=O` [IV-79], “logP = 3.35^a)”. On the same count and under the same terms, the entry for `CCOC(=O)c1ccc(Br)cc1Cn1nc(SC)n(C)c1=O` [IV-80] is “logP = 2.86^a)”. Consider `CCOC(=O)c1ccc(Cl)cc1Cn1nc(SC)n(C)c1=O` [IV-81], for which the logP entry in data set [1] is reported as “logP = 2.83^a)”. On to `CCOC(=O)c1ccc(Br)cc1Cn1nc(N(C)C)n(C)c1=O` [IV-82], for which the logP entry in data set [1] was “logP = 2.60^a)”. Same read-out and setting: as for `CCOC(=O)c1ccc(C(F)(F)F)cc1Cn1nc(N(C)C)n(C)c1=O` [IV-85], the entry is “logP = 2.79^a)”; as for `CCOC(=O)c1ccc(C(F)(F)F)cc1Cn1nc(OCC(F)(F)F)n(C)c1=O` [IV-93], “logP = 3.45^a)”.

For the compound `CCOC(=O)c1ccc(F)cc1Cn1nc(N(C)C)n(C)c1=O` [IV-94], the logP entry in data set [1] is recorded as “logP = 2.21^a)”. As for `CCCOc1nn(Cc2cc(F)ccc2C(=O)OCC)c(=O)n1C` [IV-95], the logP result in data set [1] is on record as “logP = 2.96^a)”. For `CCOC(=O)c1ccc(F)cc1Cn1nc(COC)n(C)c1=O` [IV-96], the logP result in data set [1] was “logP = 2.05^a)”. As to `CCOC(=O)c1ccc(F)cc1Cn1nc(OC)n(C2CC2)c1=O` [IV-97], the logP result in data set [1] is given as “logP = 2.50^a)”. On the same count and under the same terms, the entry for `CCOC(=O)c1ccc(F)cc1Cn1nc(OCC)n(C2CC2)c1=O` [IV-98] is “logP = 2.89^a)”; for `CCOC(=O)c1ccc(C(F)(F)F)cc1CN1N=C(C)C(C)(C)C1=O` [IV-99] it is “logP = 2.91^a)”; for `CCOC(=O)c1ccc(C(F)(F)F)cc1Cn1c(=O)n(C)c(=O)n1C` [IV-113] it is “logP = 2.58^a)”.

Turning to `COC(=O)c1ccc(S(C)(=O)=O)cc1Cn1nc(SC)n(C)c1=O` [IV-114], in data set [1], the logP result is “logP = 1.53^a)”.

`CCOc1nn(Cc2cc(S(C)(=O)=O)ccc2C(=O)OC)c(=O)n1C` [IV-115]: in data set [1], the logP result is “logP = 1.59^a)”. Still for that read-out and setting: the entry for `CCOc1nn(Cc2cc(I)ccc2C(=O)OC)c(=O)n1C` [IV-116] is “logP = 2.68^a)”; for `CCOc1nn(Cc2cc(C(F)(F)F)ccc2C(=O)OC)c(=O)n1C` [IV-117] it is “logP = 2.74^a)”. Same read-out and setting: as for `COC(=O)c1ccc(C(F)(F)F)cc1Cn1nc(SC)n(C)c1=O` [IV-118], the entry is “logP = 2.65^a)”; as for `CCOC(=O)c1ccc(C(F)(F)F)cc1Cn1nc(Br)n(C)c1=O` [IV-119], “logP = 2.96^a)”.
